Laboratory results published in ChEMBL document CHEMBL1201862, “PubChem BioAssay data set” (2004).
Active and inactive are the calls of the source.

Tests used:
[1] = microbe, parasite or virus in culture; type: functional; details: Mycobacterium tuberculosis
[2] = Dose-response inhibition of insulin secretion in a rat insulinoma line at 5 mM glucose (AID 1117331); type: functional, cell-based; details: INS-1E
cells [3] = type: functional, cell-based; details: INS-1E
[4] = half-maximal inhibitory concentration for glucagon-like peptide-1 release, STC-1 cell line, dose-response (AID 1117345); type: functional, cell-based
[5] = Glucagon-like peptide 1 release potency, NCI-H716 cell line, dose-response, half-maximal inhibitory concentration (AID 1117344); type: functional, cell-based
Genome polyprotein = Genome polyprotein (Hepatitis C virus, UniProt Q2Q167); assay: HCV core protein dimerization inhibitors, dose response, biochemical, TR-FRET (AID 2159); set-up: species or system Hepacivirus hominis;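 note: blocks dimerization of HCV core protein measured by TR-FRET between tagged core106 pairs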
Sequence of Genome polyprotein (Q2Q167 whole entry): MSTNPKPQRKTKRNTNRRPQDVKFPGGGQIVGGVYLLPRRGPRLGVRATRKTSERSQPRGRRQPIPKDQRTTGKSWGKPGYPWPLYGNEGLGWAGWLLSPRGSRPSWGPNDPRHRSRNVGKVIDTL

[6] = biological target: Peroxisome proliferator-activated receptor gamma/Nuclear receptor coactivator 1 (Homo sapiens, UniProt P37231); assay: (§1) TR-FRET dose response biochemical High Throughput Screening assay for agonists of the steroid receptor coactivator 1 (SRC-1) recruitment by the peroxisome proliferator-activated receptor gamma (PPAR gamma): non-selective agonists. [Related pubchem assays (depositor defined):AID1300, AID1808, AID504735, AID631]; type: protein assay
Sequence of Peroxisome proliferator-activated receptor gamma/Nuclear receptor coactivator 1 (P37231 whole entry): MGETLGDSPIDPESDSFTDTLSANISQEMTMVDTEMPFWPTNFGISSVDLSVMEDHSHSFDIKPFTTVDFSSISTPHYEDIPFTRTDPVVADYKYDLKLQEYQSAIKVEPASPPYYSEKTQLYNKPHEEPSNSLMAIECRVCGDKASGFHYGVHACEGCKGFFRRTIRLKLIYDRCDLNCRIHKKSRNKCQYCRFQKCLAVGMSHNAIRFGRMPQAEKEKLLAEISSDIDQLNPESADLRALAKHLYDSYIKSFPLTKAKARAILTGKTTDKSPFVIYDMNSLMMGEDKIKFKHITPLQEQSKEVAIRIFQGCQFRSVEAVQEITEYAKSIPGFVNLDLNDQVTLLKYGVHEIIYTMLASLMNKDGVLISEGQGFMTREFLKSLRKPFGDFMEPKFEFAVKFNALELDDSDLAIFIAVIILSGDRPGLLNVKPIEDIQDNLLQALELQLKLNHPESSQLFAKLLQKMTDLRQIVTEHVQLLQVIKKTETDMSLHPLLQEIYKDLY
Sequence of Peroxisome proliferator-activated receptor gamma/Nuclear receptor coactivator 1 (Q15788 whole entry, further chain): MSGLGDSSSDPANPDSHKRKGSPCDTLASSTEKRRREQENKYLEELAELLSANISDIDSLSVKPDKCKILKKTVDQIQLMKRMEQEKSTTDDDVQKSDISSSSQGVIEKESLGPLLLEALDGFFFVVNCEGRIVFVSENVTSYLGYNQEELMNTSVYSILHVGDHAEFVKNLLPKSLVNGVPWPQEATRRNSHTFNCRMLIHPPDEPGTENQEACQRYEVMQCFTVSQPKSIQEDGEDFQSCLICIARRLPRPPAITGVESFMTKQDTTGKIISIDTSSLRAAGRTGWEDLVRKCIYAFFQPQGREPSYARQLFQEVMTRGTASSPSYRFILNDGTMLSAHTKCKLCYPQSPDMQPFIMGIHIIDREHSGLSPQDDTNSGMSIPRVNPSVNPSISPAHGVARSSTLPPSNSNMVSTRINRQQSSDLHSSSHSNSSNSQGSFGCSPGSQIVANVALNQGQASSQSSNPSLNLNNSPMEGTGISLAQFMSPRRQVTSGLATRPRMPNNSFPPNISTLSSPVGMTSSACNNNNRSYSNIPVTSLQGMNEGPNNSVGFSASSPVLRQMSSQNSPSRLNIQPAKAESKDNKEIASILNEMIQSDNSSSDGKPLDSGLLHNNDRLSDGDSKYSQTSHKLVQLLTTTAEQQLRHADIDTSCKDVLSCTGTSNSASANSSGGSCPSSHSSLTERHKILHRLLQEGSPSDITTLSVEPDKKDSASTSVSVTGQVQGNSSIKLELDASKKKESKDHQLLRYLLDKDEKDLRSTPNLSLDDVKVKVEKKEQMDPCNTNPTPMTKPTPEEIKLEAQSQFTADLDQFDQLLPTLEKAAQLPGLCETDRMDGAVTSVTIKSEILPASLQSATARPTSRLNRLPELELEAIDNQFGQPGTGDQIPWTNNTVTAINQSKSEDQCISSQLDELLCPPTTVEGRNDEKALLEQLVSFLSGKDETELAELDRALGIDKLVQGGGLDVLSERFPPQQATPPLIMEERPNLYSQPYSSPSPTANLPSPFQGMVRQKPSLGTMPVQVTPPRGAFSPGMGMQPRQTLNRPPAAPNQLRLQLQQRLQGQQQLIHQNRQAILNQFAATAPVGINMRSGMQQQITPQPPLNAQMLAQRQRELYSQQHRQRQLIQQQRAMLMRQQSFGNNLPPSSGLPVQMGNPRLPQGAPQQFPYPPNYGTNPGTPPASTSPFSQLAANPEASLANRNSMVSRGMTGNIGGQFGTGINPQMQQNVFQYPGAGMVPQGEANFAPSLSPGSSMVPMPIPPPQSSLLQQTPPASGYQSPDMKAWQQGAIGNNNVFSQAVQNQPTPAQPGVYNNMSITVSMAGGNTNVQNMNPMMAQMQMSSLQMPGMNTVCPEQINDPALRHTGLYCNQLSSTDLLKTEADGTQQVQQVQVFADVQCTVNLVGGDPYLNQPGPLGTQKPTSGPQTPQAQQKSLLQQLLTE

[7] = biological target: Peroxisome proliferator-activated receptor gamma/Nuclear receptor coactivator 3 (Homo sapiens, UniProt P37231); assay: as §1, with “3 (SRC-3)” for “1 (SRC-1)”, “assays: 1301 (Confirmation screen.), 1048 (Primary screen.)]” for “assays (depositor defined):AID1300, AID1808, AID504735, AID631]”; type: functional
Estrogen receptor = biological target: T1, Estrogen receptor (Homo sapiens, UniProt P03372);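 note: potency for inhibiting coactivator peptide recruitment to the receptor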
T1 sequence (P03372 whole entry): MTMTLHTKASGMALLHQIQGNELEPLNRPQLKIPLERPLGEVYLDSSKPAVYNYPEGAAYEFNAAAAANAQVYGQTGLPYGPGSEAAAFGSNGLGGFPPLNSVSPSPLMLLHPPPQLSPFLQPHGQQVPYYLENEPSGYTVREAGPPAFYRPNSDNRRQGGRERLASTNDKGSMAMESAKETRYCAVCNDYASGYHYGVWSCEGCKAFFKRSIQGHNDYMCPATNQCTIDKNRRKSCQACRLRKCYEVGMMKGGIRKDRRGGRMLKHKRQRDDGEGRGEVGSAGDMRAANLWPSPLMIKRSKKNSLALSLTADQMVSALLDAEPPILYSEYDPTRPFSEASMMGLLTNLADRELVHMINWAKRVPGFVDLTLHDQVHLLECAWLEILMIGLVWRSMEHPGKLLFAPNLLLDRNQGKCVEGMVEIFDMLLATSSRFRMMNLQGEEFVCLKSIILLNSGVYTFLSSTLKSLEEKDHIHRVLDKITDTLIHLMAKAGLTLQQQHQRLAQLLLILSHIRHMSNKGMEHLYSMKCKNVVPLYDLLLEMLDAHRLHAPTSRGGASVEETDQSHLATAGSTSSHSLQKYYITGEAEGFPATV

[8] = biological target: Peroxisome proliferator-activated receptor gamma/Nuclear receptor coactivator 2 (Homo sapiens, UniProt P37231); assay: TR-FRET dose response biochemical High Throughput Screening assay for agonists of the steroid receptor coactivator 2 (SRC-2) recruitment by the peroxisome proliferator-activated receptor gamma (PPAR gamma): non-selective agonists. [Related pubchem assays: 1297, 1032 ]; type: functional
[9] = Mtb BioA inhibitors by displacement, dose response, biochemical, coupled fluorescence displacement, 20-point, dry powder (AID 743357); type: functional
[10] = HepG2 cell cytotoxicity, dose response, cytotoxicity control, luminescence, dry powder, set 9 (AID 743358); type: functional, cell-based
[11] = M. tuberculosis growth inhibition, HTS (AID 449762); type: functional
[12] = biological target: Mitochondrial peptide methionine sulfoxide reductase (Bos taurus, UniProt P54149); assay: Absorbance-based biochemical high throughput dose response assay for activators of Methionine sulfoxide reductase A (MsrA).; type: functional
Sequence of Mitochondrial peptide methionine sulfoxide reductase (P54149 whole entry): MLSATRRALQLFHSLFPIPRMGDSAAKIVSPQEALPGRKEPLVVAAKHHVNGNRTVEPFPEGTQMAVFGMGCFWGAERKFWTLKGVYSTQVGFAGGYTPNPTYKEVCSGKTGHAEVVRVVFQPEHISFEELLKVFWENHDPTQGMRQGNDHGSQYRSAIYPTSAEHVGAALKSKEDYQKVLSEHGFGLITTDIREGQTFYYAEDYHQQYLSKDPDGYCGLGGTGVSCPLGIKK

Estrogen receptor beta = Estrogen receptor beta (Homo sapiens, UniProt Q92731);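 note: recombinant ER-beta bound to coactivator SRC1 peptide in presence of estradiol agonist; inhibitors block coactivator peptide binding and lower the FRET signal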
Sequence of Estrogen receptor beta (Q92731 whole entry): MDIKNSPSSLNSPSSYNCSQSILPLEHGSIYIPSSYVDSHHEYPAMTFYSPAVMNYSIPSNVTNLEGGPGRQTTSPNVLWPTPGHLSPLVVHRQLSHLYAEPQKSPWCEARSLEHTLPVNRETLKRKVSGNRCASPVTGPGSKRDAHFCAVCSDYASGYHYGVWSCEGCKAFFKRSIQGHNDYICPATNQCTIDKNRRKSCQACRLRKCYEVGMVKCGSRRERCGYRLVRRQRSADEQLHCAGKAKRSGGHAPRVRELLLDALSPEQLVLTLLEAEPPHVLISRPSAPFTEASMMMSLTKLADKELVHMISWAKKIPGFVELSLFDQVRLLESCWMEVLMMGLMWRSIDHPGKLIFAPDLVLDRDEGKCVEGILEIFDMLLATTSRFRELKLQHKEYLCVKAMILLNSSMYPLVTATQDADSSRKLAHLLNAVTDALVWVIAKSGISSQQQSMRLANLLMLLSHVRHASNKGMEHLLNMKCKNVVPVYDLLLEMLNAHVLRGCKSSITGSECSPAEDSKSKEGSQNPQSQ

[13] = biological target: E3 ubiquitin-protein ligase Mdm2 (Homo sapiens, UniProt Q00987); assay: enhancers of MDM2-luciferase reporter signal, concentration-effect titration, project on inhibitors of MDM2 ubiquitin ligase, cellular assay, luminescent readout, 384-well plate format (AID 1394); type: functional;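 note: MDM2 E3 inhibitors raise luminescence so EC50 is for signal enhancement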
Sequence of E3 ubiquitin-protein ligase Mdm2 (Q00987 whole entry): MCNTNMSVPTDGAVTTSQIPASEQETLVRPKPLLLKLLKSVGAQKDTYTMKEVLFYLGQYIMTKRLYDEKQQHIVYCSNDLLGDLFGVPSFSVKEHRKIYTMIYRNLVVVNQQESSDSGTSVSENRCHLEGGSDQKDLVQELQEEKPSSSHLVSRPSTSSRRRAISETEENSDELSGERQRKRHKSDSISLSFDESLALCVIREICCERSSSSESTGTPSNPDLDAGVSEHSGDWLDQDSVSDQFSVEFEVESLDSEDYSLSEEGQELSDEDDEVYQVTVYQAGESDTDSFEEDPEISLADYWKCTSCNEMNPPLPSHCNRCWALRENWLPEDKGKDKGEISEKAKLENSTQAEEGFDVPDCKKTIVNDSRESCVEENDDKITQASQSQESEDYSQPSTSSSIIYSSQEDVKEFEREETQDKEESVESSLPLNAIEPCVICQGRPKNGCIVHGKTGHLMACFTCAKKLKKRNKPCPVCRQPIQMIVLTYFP

[14] = system: Streptococcus sp. 'group A'; assay: growth inhibition of control SK(-) GAS strain, dose response, counter-screen for streptokinase expression inhibitor project, luminescence, kanamycin, BacTiterGlo, confirmation (AID 1900); type: functional, organism-based
Streptococcus = assay: Group A Streptococcus viability loss, dose response, counter-screen for streptokinase expression inhibitor project, luminescence, BacTiterGlo (AID 1915); type: functional, organism-based;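 note: potency for reduction of bacterial viability or growth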
[15] = THP-1 cell cytotoxicity, dose response, cytotoxicity control for non-replicating M. tuberculosis project (AID 489025); type: functional
[16] = Vero E6 cell cytotoxicity, dose response, cytotoxicity control for non-replicating M. tuberculosis project, secondary assay (AID 492998); type: functional, VeroE6; details: Vero C1008
cells [17] = type: functional
Ephrin type-A receptor 4 = Ephrin type-A receptor 4 (Mus musculus, UniProt Q03137); assay: inhibitors of EphA4 binding to KYL peptide, primary screen, biochemical, colorimetric, mouse EphA4 (AID 689); type: functional
Sequence of Ephrin type-A receptor 4 (Q03137 whole entry): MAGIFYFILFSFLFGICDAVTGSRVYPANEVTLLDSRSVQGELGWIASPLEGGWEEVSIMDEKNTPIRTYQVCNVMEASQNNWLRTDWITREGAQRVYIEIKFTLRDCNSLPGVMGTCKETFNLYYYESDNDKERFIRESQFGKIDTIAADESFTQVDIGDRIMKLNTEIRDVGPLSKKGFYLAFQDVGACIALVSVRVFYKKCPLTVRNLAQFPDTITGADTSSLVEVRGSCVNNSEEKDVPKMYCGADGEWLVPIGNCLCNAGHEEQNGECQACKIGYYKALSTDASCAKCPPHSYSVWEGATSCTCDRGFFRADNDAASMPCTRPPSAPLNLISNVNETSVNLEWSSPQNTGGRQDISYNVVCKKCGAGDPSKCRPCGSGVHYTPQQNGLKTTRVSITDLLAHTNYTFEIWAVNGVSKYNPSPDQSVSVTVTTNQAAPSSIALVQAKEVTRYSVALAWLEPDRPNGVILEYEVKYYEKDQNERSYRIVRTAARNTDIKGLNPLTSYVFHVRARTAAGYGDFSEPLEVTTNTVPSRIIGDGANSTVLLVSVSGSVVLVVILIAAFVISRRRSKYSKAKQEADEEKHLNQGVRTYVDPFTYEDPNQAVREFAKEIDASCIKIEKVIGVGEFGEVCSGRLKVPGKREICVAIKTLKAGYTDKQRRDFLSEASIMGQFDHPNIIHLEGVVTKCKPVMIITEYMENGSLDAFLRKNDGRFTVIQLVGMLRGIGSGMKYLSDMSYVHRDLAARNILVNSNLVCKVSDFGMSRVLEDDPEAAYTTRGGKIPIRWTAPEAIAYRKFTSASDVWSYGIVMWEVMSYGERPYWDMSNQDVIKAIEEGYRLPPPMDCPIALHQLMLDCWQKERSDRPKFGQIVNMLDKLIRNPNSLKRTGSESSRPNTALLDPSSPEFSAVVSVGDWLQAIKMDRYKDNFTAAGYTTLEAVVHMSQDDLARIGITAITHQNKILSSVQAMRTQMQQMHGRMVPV

For `Clc1ccc2c(c1)CCc1cccnc1C2=C1CCNCC1` [DESLORATADINE], the CC50 [1] was 32.9 µM (active), the IC50 [2] was 7.11 µM (inactive) and the IC50 (cells [3]) was > 33.3 µM (inactive). For the same compound, the IC50 [4] was > 40 µM (inactive) and the IC50 [5] was > 40 µM (inactive).
For `Cc1cc(C(=O)OCC(=O)c2ccc(Br)s2)no1`, the IC50 (Genome polyprotein) was > 49.8 µM (not active), the EC50 [6] was 137 µM (inactive) and the EC50 [7] was > 79.4 µM (not active). For the same compound, the IC50 (Estrogen receptor) was 36.2 µM (not active) and the EC50 [8] was 3.89 µM (active).
With `CC(C)NC(=O)N1CC[C@@H]2[C@@H](CO)N(C)c3ccc(-c4cccc(F)c4)cc3[C@@H]21` the AC50 [9] was 11.8 µM (active) and the AC50 [10] was > 52 µM (inactive).
In the case of `Cc1ccc2[nH]c3c(c2c1)CN(C(=O)CN1CCN(c2ccccn2)CC1)CC3`, the IC50 [11] was > 100 µM (active) and the EC50 [12] was > 104 µM (inactive).
With `CC(=N)/C(C#N)=C(/O)CSc1nnc(Nc2cccc(C)c2C)s1` the IC50 (Estrogen receptor beta) was 12.3 µM (active).
For `O=C(Nc1nnc(-c2ccc(Cl)cc2)o1)c1ccccc1Br`, the EC50 [13] was 12.8 µM (not active), the EC50 [14] was 3.15 µM (active) and the EC50 (Streptococcus) was 5.91 µM (active). For the same compound, the CC50 [15] was 37 µM (active), the CC50 [16] was 18 µM (active) and the IC50 (cells [17]) was 3.74 µM (active).
In the case of `Cc1ccccc1C(=O)c1cccn1CC(=O)NCC1CCCO1` (configuration not stated), the IC50 (Ephrin type-A receptor 4) was > 100 µM (not active).
